Data from ChEMBL document CHEMBL1130647, “Synthesis and in vitro cytotoxicity of 3-substituted-1,8-diazaanthraquinones produced by Lewis-acid catalyzed hetero Diels-Alder reaction” (Bioorg Med Chem Lett, 1998).

Legend:
Type in all cases: functional, cell-based
Conditions in all cases: Homo sapiens
SK-OV-3 = experiment: In vitro cytotoxic activity against SK-OV-3 (ovarian carcinoma) cell lines by using SRB assay
HOP-62 = experiment: In vitro cytotoxic activity against HOP62 (lung cancer) cell lines by using SRB assay
SF-295 = experiment: In vitro cytotoxic activity against SF-295 (CNS carcinoma) cell lines by using SRB assay
HCT-15 = experiment: In vitro cytotoxic activity against HCT15 (colon cancer) cell lines by using SRB assay

Question: `COc1cccc2c1C(=O)c1c(O)c3c(c(O)c1C2=O)C[C@@](O)(C(=O)CO)C[C@@H]3O[C@H]1C[C@H](N)[C@H](O)[C@H](C)O1` [DOXORUBICIN] was tested. Which IC50 (SK-OV-3) did it give?
Answer: The IC50 was 20 nM.

Question: What about the IC50 (HOP-62) of the same molecule?
Answer: Its IC50 is 4 nM.

Question: What about the IC50 (SF-295) of the same molecule?
Answer: The IC50 was 35 nM.

Question: And the IC50 (HCT-15)?
Answer: The IC50 was 100 nM.

Question: What does the source list for `O=C1c2cccnc2C(=O)c2ncc(CO)cc21`?
Answer: IC50 (SK-OV-3): 200 nM; IC50 (HOP-62): 100 nM; IC50 (SF-295): 300 nM; IC50 (HCT-15): 400 nM

Question: What does the source list for `CC(C)NC(=O)OCc1cnc2c(c1)C(=O)c1cccnc1C2=O`?
Answer: IC50 (SK-OV-3): 20 nM; IC50 (HOP-62): 6 nM; IC50 (SF-295): 100 nM; IC50 (HCT-15): 20 nM

Question: Which IC50 (SK-OV-3) does the source give for `O=C1c2cccnc2C(=O)c2ncc(CBr)cc21` here?
Answer: The IC50 was 300 nM.

Question: And the IC50 (HOP-62)?
Answer: The IC50 was 55 nM.

Question: And the IC50 (SF-295)?
Answer: Its IC50 is 500 nM.

Question: What about the IC50 (HCT-15) of the same molecule?
Answer: Its IC50 is 400 nM.

Question: Which IC50 (SK-OV-3) does the source give for `Cc1cnc2c(c1)C(=O)c1cccnc1C2=O` here?
Answer: Its IC50 is 40 nM.

Question: What about the IC50 (HOP-62) of the same molecule?
Answer: The IC50 was 15 nM.

Question: And the IC50 (SF-295)?
Answer: Its IC50 is 250 nM.

Question: What about the IC50 (HCT-15) of the same molecule?
Answer: Its IC50 is 350 nM.
